Test results taken from patent US20250354096A1, “IN VITRO DEVICE FOR VASCULARIZED MICROFLUIDIC MODELING OF OSTEOCHONDRAL UNIT” (CFD Research Corporation, priority 2024, published 2025).

Columns and labels:
[1] = tested on: MMPs (catabolic genes related to OA) in bone and cartilage channels; assay: qPCR of MMP changes in OC device after defined inflammatory cytokines and drug candidate; assay type: cell-based, human; details: combination of defined inflammatory cytokines for 24 hours, then Tyrphostin-9; versus no treatment and cytokine alone; FIGS. 11A-11F
Excerpt: The qPCR data from extracted cells was obtained from the cells that can be individually extracted on a per-channel basis so that tissues can be analyzed separately. […] Statistical significance determined by Kruskal-Wallis non-parametric test followed by Dunn's post hoc. * p<0.05, ** p<0.01, and *** p<0.001. FIGS. 10A, 10C, and 10E show bone. FIGS. 10B, 10D, and 10F show cartilage.
FIGS. 11A-11F include data that show the MMP changes in response to the combination of defined cytokines and a drug candidate. Devices were exposed to a combination of defined inflammatory cytokines for 24 hours. After 24 hours, the devices were exposed to either fresh medium without cytokines, or to Tyrphostin-9 (TY9), a candidate compound with potential anti-inflammatory effects under consideration as a palliative for osteoarthritis (OA). […] Thus, the device can be used to screen for drugs to treat OA.

[2] = tested on: tri-culture of hMSC derived chondrocytes, hMSC derived osteoblasts and HUVEC; assay: Inflammatory assay: oxidative stress (CellROX Orange ROS) in tri-culture OC device; assay type: cell-based, human; details: 100 ng/mL LPS perfused into channel 3, no RAP; 4 hours without flow; versus control; n=3; FIG. 8
Experimental: In the tri-culture device, OA-like cues were supplied to observe i) oxidative stress induced by LPS conditioning, and ii) the reduction of the oxidative stress in the simultaneous presence of LPS and the anti-inflammatory drug Rapamycin (RAP). Thus, three conditions were investigated: no insult (control,-LPS-RAP), insult (+LPS−RAP), and insult plus treatment (+LPS+RAP). For the insult, the medium was exchanged in established devices with 100 ng/mL LPS perfused into channel 3 to maximize inflammation across the device by supplying LPS in the closest proximity to both bone and vasculature. […]
Resultant oxidative stress was measured by image processing after four hours by the CellROX™ Orange Reactive Oxygen Species Detection Kit (Thermo Fisher), a fluorometric reactive oxygen species (ROS) assay, according to the manufacture's protocol. […] The same microscope was used to capture images for each experiment and exposure and other microscope settings were kept constant to allow quantitative comparisons between micrographs. Quantitative measurement of relative ROS was conducted by image analysis via ImageJ and Matlab®. Briefly, for each condition (i.e., i)-LPS-RAP; ii)+LPS-RAP; iii)+LPS+RAP) images were split into three regions of interest (ROIs), representing the three channel of the devices (vasculature, bone, cartilage), that were separately analyzed. […]

CC(C)(C)c1cc(C=C(C#N)C#N)cc(C(C)(C)C)c1O [Tyrphostin-9]
MMP changes (fold change) / inflammatory condition [1]: inflammatory condition is improved

lipopolysaccharide [LPS]
oxidative stress of the cells (relative ROS, normalized image intensity) [2]: increases the oxidative stress of the cells in all the compartment
